Reference: PMC8538783, “Green Oxidation of Amines by a Novel Cold-Adapted Monoamine Oxidase MAO P3 from Psychrophilic Fungi Pseudogymnoascus sp. P3” (Molecules, 2021)
Where “and” joins values, the source holds several entries; their conditions need not be identical. Equal values may be shown once. Read-outs that look alike come from different tables or passages of the source.

Key:
MAO P3 [1] = experiment: Initial oxidation screening: bioconversion of amine substrates by cell-free extract, GC-MS; assay type: biochemical, Pseudogymnoascus sp. P3; details: for Rate of Oxidation: 10 mM substrate, 10 mM potassium phosphate buffer pH 7.2, cell-free intracellular extract of P3 strain, 4 h at 30 °C, relative to compound 9 = 100%
Description: (§1) Substrate specificity of MAO P3 was examined towards sixteen amine substrates (listed in Table 3) that differed in the number of carbons and various substitutions. Bioconversion was carried out in 5 mL glass tubes (Schott, Germany), where the total volume of the reaction was 2.5 mL and was comprised of 1 mL of MAO P3 (1 U/mL), where the cell-free extracts were used for the initial oxidation screening and the purified enzyme, for substrate specificity. An amount of 0.75 mL of a substrate (in the range of concentrations between 10 and 100 mM) was resuspended in 0.1 M potassium phosphate pH 7.2, and 0.75 mL of 10 mM potassium phosphate buffer pH 7.2. Initial oxidation screening was carried out for 4 h at 30 °C, 810 rpm. The substrate specificity was measured at 30 °C; reactions were carried out for 5 h, 810 rpm. In order to analyze the products of the bioconversion, samples were first neutralized by the addition of 0.25 mL of 1 M NaOH. An amount of 0.5 mL of dichloromethane was added to samples and incubated at room temperature with shaking for 1 min. The samples were centrifuged for 5 min, 5000 rpm, 4 °C. The organic phase was collected for the gas chromatography-mass spectrometry (GC-MS) analysis. The Km values were calculated based on […] curves (see the Supplementary Materials).
Samples were injected with the GerstelMultiPurpose sampler (MPS 2). […] Helium was used as a carrier gas with a flow rate of 1.5 mL/min. The injector temperature was held at 250 °C. The oven temperature was initially held at 40 °C for 2 min, ramped up to 200 °C by 10 °C/min; the total run time was 20 min. The detector was operated in EI mode with the transfer line maintained at 280 °C. All substrates were purchased from MerckMillipore, USA, and quantified by GC analysis based on their peak areas and calibration curves prepared for each individual. GC-MS spectra are presented in the Supplementary Materials.

MAO P3 [2] = experiment: Substrate specificity (Vmax, Km) of purified MAO P3, GC-MS; assay type: biochemical, Pseudogymnoascus sp. P3
Description: as §1
GC-MS analyses were carried out on a Pegasus 4D (LECO, USA) apparatus, equipped with an Agilent 6890N gas chromatograph coupled with a time-of-flight mass spectrometer (LECO, Saint Joseph, MI, USA). Samples were injected with the GerstelMultiPurpose sampler (MPS 2). The GC was fitted with a BPX5 capillary column of 30 m × 0.25 mm × 0.25 µm (SGE). Helium was used as a carrier gas with a flow rate of 1.5 mL/min. The injector temperature was held at 250 °C. The oven temperature was initially held at 40 °C for 2 min, ramped up to 200 °C by 10 °C/min; the total run time was 20 min. The detector was operated in EI mode with the transfer line maintained at 280 °C. All substrates were purchased from MerckMillipore, USA, and quantified by GC analysis based on their peak areas and calibration curves prepared for each individual. GC-MS spectra are presented in the Supplementary Materials.
Method S3. Determination of Km and Vmax values based on Lineweaver-Burk curves
The double-reciprocal curve was create based on the inverse initial velocity as a function of the inverse substrate
concentration. Curves were created for each amine substrate (Fig. S2), based on the results of GC-MS analysis (Paragraph
Figure S4. The double-reciprocal curves for MAO P3 amines substrates: A. 3-azabicyclo[3.3.0]octane;
B. hexamethyleneimine; C. 6,6-dimethyl-3-azabicyclohexane; D. cyclopentylamine; E. α-methylbenzylamine;
F. pyrrolidine; G. sec-butylamine; H. indoline.
(1 picture or pasted object on this page, not shown here)

MAO = experiment: Colorimetric MAO activity assay of intracellular protein extract of P3 strain; assay type: biochemical, Pseudogymnoascus sp. P3; details: 30 °C, 30 min
Description: (§2) The activity of MAO P3 was measured by a colorimetric method which is based on the formation of orange-brownish tetraguaiacol in the presence of H2O2 and peroxidase (insert in Figure 2A). The reaction mixture contained 0.5 mL of the enzyme sample, 0.25 mL of 10 mM potassium phosphate buffer pH 7.2, 0.25 mL of 20 mM amine substrate (to identify a potential MAO producer, primary–n-butylamine, and secondary–6,6-dimethyl-3-azabicyclohexane, amines were used), 0.02 mL of peroxidase (90 U/mL), and 0.4 mL of 0.02 M guaiacol (all reagents from MerckMillipore, Burlington, MA, USA). The reaction mixture was incubated at 30 °C for 30 min.
The absorbance of the samples was measured at 436 nm on the UV/visible spectrophotometer (UV-1800 Shimatdsu, Kyoto, Japan). A unit of enzyme activity was defined as the amount of enzyme that catalyzes the formation of 1.0 μmol of H2O2 per min.
Figure 2 MAO biosynthesis in 14 psychrophilic fungi strains. The activity was measured towards a primary amine (n-butylamine) and a secondary amine (6,6-dimethyl-3-azabicyclohexane), for each substrate. The reaction was carried out at 30 °C for 30 min with continuous shaking in 10 mM potassium phosphate buffer […]. (A) Activity after the growth in the induction medium, without inoculation from a solid culture; insert: scheme of the measurement of MAO activity in psychrophilic fungi strains; absorbance of tetraguaiacol is measured at 436 nm. (B) Activity after the growth in the induction medium, with inoculation from a solid culture.

MAO P3 [3] = experiment: Initial oxidation screening: bioconversion of amine substrates by cell-free extract, GC-MS; assay type: biochemical, Pseudogymnoascus sp. P3; details: 24 h of incubation at 30 °C with shaking
native MAO N = details: cited from earlier work
Pseudogymnoascus sp. P3 = assay type: cell-based
Description: The 125 mL cultures were inoculated from the glycerol stocks. The strains were cultured at 20 °C for 14 days with shaking at 100 rpm in 0.5 L flasks. The growth medium was composed of 3% (w/v) glucose, 0.1% (w/v) KH2PO4, 0.05% (w/v) MgSO4, 0.05% (w/v) KCl, and 0.1% (w/v) NaNO3, which was replaced by 0.1% (v/v) of n-butylamine (MAO inducer) in the induction medium. The concentration of n-butylamine was optimized (tested concentrations: 0.01, 0.03, 0.05, 0.10, 0.15, 0.20, and 0.50%) to maximize the biosynthesis of MAO. The mycelium was collected by filtration, wet mass was weighed and used for further experiments.
as §2

MAO N D5 = tested on: MAO N D5; parameters: method as in PMID 20146293; details: recombinant MAO N D5; cited from earlier work
MAO P3 [4] = experiment: Effect of extra FAD in the reaction mixture on MAO P3 activity; assay type: biochemical, Pseudogymnoascus sp. P3; details: 0.2 mM FAD in reaction mixture, compared to holoenzyme without supplementation of FAD
Description: as §2
Reconstruction of flavoprotein MAO P3 was carried out in 10 mM potassium phosphate buffer pH 7.2 in a total volume of 5 mL, with different conditions of: FAD concentration (5, 10, 15, 20, 25, and 50 μM), temperature (5, 10, 15, 20, 25, and 30 °C), and time of incubation (from 10 min to 60 min). After incubation, extra FAD was removed by centrifugation at 5000 rpm, 4 °C, 20 min in Centricon concentrators of MWCO of 10 kDa (MerckMillipore, Burlington, MA, USA). The absorption spectrum was measured on a flat-bottom 96-well plate on a MultiScanGo plate reader (ThermoFisher Scientific, Waltham, MA, USA).

MAO A = tested on: MAO A; parameters: method as in PMID 11134050; details: cited from earlier work
MAO P3 [5] = experiment: Inhibition analysis of MAO P3 by clorgyline, colorimetric guaiacol/peroxidase assay; assay type: biochemical, Pseudogymnoascus sp. P3; details: preincubated 30 min at 30 °C; substrate 6,6-dimethyl-3-azabicyclohexane
Description: The enzyme was preincubated with different concentrations (from 0.1 to 10^−8 mM) of clorgyline (MerckMillipore, Burlington, MA, USA) for 30 min at 30 °C. MAO P3 activity was measured according to the above-mentioned procedure. Clorgyline solution (1 mM) was prepared in 10 mM potassium phosphate buffer pH 7.2.

[6] = purified MAO P3 1 U/mL, 0.1 M potassium phosphate buffer pH 7.2, 30 °C
[7] = induction medium inoculated from glycerol stock (no solid preculture)
[8] = inoculation from solid culture (7 days, 20 °C)

## c1ccncc1 [Substrate 8, pyridine]
MAO P3 [1]
  Rate of Oxidation: 0%

## c1ccc2c(c1)CCN2 [Substrate 12, indoline]
MAO P3 [1]
  Rate of Oxidation: 9%
MAO P3 [2]; pH 7.2
  Km: 20400 µM
MAO P3 [2]; [6]
  Vmax: 0.14 mM/h

## NCCCCN [Substrate 15, putrescine]
MAO P3 [1]
  oxidation/conversion by MAO P3 (in words): not able to convert
  Rate of Oxidation: 0%

## CC1(C)C2CNCC21 (stereo not drawn) [Substrate 9, 6,6-dimethyl-3-azabicyclo[3.1.0]hexane]
MAO P3 [1]
  Rate of Oxidation: 100%
MAO P3 [2]; [6]
  Km: 2400 µM
  Vmax: 1.1 mM/h
MAO; [7]
  MAO activity towards the amine: 959 ± 7.2 U/L
MAO; [8]
  MAO activity towards the amine: 1470 ± 10.6 U/L

## NC1CCCC1 [Substrate 2, cyclopentylamine]
MAO P3 [1]
  Rate of Oxidation: 31%
MAO P3 [2]; [6]
  Km: 8220 µM
  Vmax: 0.47 mM/h

## CN1CCCC1 [Substrate 4, 1-methylpyrrolidine]
MAO P3 [1]
  oxidation/conversion by MAO P3 (in words): no activity
  Rate of Oxidation: 0%
MAO P3 [3]
  conversion by MAO P3 after prolonged incubation (in words): unconverted

## NC(c1ccccc1)c1ccccc1 [Substrate 14, benzylhydrylamine]
MAO P3 [1]
  oxidation/conversion by MAO P3 (in words): not able to oxidize
  Rate of Oxidation: 0%
MAO P3 [3]
  conversion by MAO P3 after prolonged incubation (in words): unconverted

## CCC(C)N (stereo not drawn) [Substrate 1, sec-butylamine]
MAO P3 [1]
  Rate of Oxidation: 29%
MAO P3 [2]; [6]
  Km: 18000 µM
  Vmax: 0.17 mM/h

## CCCN [propylamine]
Native MAO N
  Km: 1600 µM

## CCCCN [n-butylamine]
Pseudogymnoascus sp. P3
  effect on the psychrophilic strains: acted deadly
Pseudogymnoascus sp. P3; 0.01% n-butylamine in induction medium
  Relative Activity of MAO P3: 6.4 ± 0.31%
Pseudogymnoascus sp. P3; 0.03% n-butylamine in induction medium
  Relative Activity of MAO P3: 19.9 ± 0.31%
Pseudogymnoascus sp. P3; 0.05% n-butylamine in induction medium
  Relative Activity of MAO P3: 30.7 ± 0.20%
Pseudogymnoascus sp. P3; 0.10% n-butylamine in induction medium
  Relative Activity of MAO P3: 100.0%
Pseudogymnoascus sp. P3; 0.15% n-butylamine in induction medium
  Relative Activity of MAO P3: 45.9 ± 0.34%
Pseudogymnoascus sp. P3; 0.20% n-butylamine in induction medium
  Relative Activity of MAO P3: 9.6 ± 0.20%
Pseudogymnoascus sp. P3; 0.50% n-butylamine in induction medium
  Relative Activity of MAO P3: 0.0%
Native MAO N
  Km: 600 µM
MAO; [7]
  MAO activity towards the amine: 910 ± 4.8 U/L
MAO; [8]
  MAO activity towards the amine: 1350 ± 10.5 U/L

## NCCN1CCCC1 [Substrate 13, 1-(2-aminoethyl)pyrrolidine]
MAO P3 [1]
  oxidation/conversion by MAO P3 (in words): no activity
  Rate of Oxidation: 0%
MAO P3 [3]
  conversion by MAO P3 after prolonged incubation (in words): unconverted

## O=C1NC2C=CC1C2 (stereo not drawn) [Substrate 7, 2-azabicyclo[2.2.1]hept-5-en-3-one]
MAO P3 [1]
  Rate of Oxidation: 0%

## NCc1ccccc1 [benzylamine]
Native MAO N
  Km: 240 µM
  kcat: 6.18 s⁻¹

## C1CC[C@H]2CNC[C@H]2C1 [Substrate 11, cis-8-azabicyclo[4.3.0]nonane]
MAO N D5
  rate of initial oxidation: 19%
MAO P3 [1]
  Rate of Oxidation: 0%
MAO P3 [3]
  conversion by MAO P3 after prolonged incubation (in words): unconverted

## NCCCCNCCCN [Substrate 16, spermidine]
MAO P3 [1]
  oxidation/conversion by MAO P3 (in words): not able to convert
  Rate of Oxidation: 0%

## CCCCCN [amylamine]
Native MAO N
  kcat: 16.67 s⁻¹

## C1CCNC1 [Substrate 3, pyrrolidine]
MAO P3 [1]
  Rate of Oxidation: 36%
MAO P3 [2]; [6]
  Km: 14300 µM
  Vmax: 0.16 mM/h

## Cc1cc2nc3c(=O)[nH]c(=O)nc-3n(C[C@H](O)[C@H](O)[C@H](O)COP(=O)(O)OP(=O)(O)OC[C@H]3O[C@@H](n4cnc5c(N)ncnc54)[C@H](O)[C@@H]3O)c2cc1C [FAD, flavin adenine dinucleotide]
MAO P3 [4]
  change of MAO P3 activity: increased two-fold

## C#CCN(C)CCCOc1ccc(Cl)cc1Cl [clorgyline]
MAO A
  IC50: 1.2 nM
  low concentration that inhibits MAO A: 10^−8 M
MAO P3 [5]
  IC50: 18 nM

## NCCc1ccccc1 [2-phenethylamine]
Native MAO N
  Km: 100 µM

## C1CC2CNCC2C1 (stereo not drawn) [Substrate 10, 3-azabicyclo[3.3.0]octane]
MAO N D5
  rate of initial oxidation: 16%
MAO P3 [1]
  Rate of Oxidation: 67%
MAO P3 [2]; [6]
  Km: 10400 µM
  Vmax: 0.24 mM/h

## C1CCCNCC1 [Substrate 6, hexamethyleneimine]
MAO P3 [1]
  Rate of Oxidation: 30%
MAO P3 [2]; [6]
  Km: 2640 µM and 2560 µM
  Vmax: 0.72 mM/h

## CCCCCCN [hexylamine]
Native MAO N
  Km: 200 µM
